Some test systems named below: BT-549 breast; NCI-H226 lung; NCI-H23 lung; PC-3 prostate; RXF 393 renal; SK-MEL-2 melanoma; SK-MEL-5 melanoma; SN12C renal; UACC-257 melanoma; HL-60(TB) leukemia.
Assay in all cases: NCI tumour cell line growth inhibition, 48 h

Structures are written as SMILES.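 Tested at 5 concentrations; 48 h exposure; 96-well plates; endpoints linearly interpolated, else capped at highest concentration. GI50: concentration for 50% inhibition of growth. TGI denotes the concentration required for complete inhibition of growth.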 Where only a bound is given, the exact number is not on record here.

Turning to `NC(N)=N/N=C/c1c(-c2cc(Cl)sc2Cl)nc2n1CCS2`, the GI50 in the experiment on BT-549 breast was 8.51 µM; in the experiment on NCI-H226 lung, 8.31 µM; in the experiment with NCI-H23 lung it was 8.77 µM; with PC-3 prostate, 8.2 µM; in the experiment on RXF 393 renal, 10.8 µM; in the experiment on SK-MEL-2 melanoma, 22.6 µM. Also, the GI50 was 10.1 µM in the experiment on SK-MEL-5 melanoma, 7.18 µM in the experiment on SN12C renal and 9 µM in the experiment with UACC-257 melanoma. Moreover, the TGI was 17.3 µM in the experiment with BT-549 breast; 16.8 µM in the experiment with NCI-H226 lung; 16.7 µM with NCI-H23 lung; 15.2 µM with PC-3 prostate; 22.4 µM with RXF 393 renal; > 50 µM in the experiment with SK-MEL-2 melanoma. The TGI in the experiment on SK-MEL-5 melanoma amounted to 18.2 µM; in the experiment on SN12C renal, 14.2 µM; in the experiment on UACC-257 melanoma it was 20.4 µM.
Turning to `CC1=C(N2CC2)C(=O)c2nc3n(c2C1=O)CCC3O` (configuration not stated), the TGI was 0.0377 µM with BT-549 breast; 8.47 µM in the experiment on HL-60(TB) leukemia; 2.14 µM with NCI-H226 lung; 0.262 µM in the experiment on NCI-H23 lung; 0.398 µM in the experiment with RXF 393 renal; 1.4 µM in the experiment on SK-MEL-2 melanoma. The TGI in the experiment with SK-MEL-5 melanoma turned out to be 0.0562 µM; in the experiment on SN12C renal, 2.71 µM; with UACC-257 melanoma, 0.513 µM.
Regarding `c1cc(-c2sc(-c3ccncc3)c(-c3ccncc3)c2-c2ccncc2)ccn1`, the TGI in the experiment on BT-549 breast stood at 42 µM; with NCI-H226 lung, 30.4 µM; in the experiment with NCI-H23 lung it was 31.9 µM; in the experiment on PC-3 prostate, 57.4 µM; in the experiment on RXF 393 renal, 33.4 µM; in the experiment on SK-MEL-2 melanoma it was 48.1 µM. In addition, the TGI came out at 28.6 µM in the experiment with SK-MEL-5 melanoma, 46.5 µM with SN12C renal and 31.8 µM in the experiment with UACC-257 melanoma.
As for `CN(C)CCNc1cccc2sc3ccc(O)cc3c(=O)c12`, the GI50 with BT-549 breast was 9.2 µM; with HL-60(TB) leukemia, 1.53 µM; with NCI-H226 lung it was 5.94 µM; in the experiment with NCI-H23 lung it was 4.03 µM; in the experiment on PC-3 prostate it was 2.44 µM; in the experiment on RXF 393 renal it was 1.95 µM. Moreover, the GI50 with SK-MEL-5 melanoma is 1.69 µM; with SN12C renal, 2.54 µM; in the experiment on UACC-257 melanoma it was 1.7 µM. The TGI in the experiment on BT-549 breast turned out to be 23.5 µM; in the experiment on HL-60(TB) leukemia, 3.74 µM; with NCI-H226 lung, 23.1 µM; with NCI-H23 lung it was 17 µM; with PC-3 prostate, 13.4 µM; in the experiment on RXF 393 renal it was 7.38 µM. Moreover, the TGI in the experiment on SK-MEL-5 melanoma was determined as 3.25 µM; in the experiment on SN12C renal, 13.6 µM; in the experiment on UACC-257 melanoma, 3.21 µM.
Regarding `O=S(=O)(O)c1ccc2cc(N=Nc3cc(S(=O)(=O)O)c4cccnc4c3O)ccc2c1`, the TGI is > 100 µM with BT-549 breast; 4.97 µM in the experiment with HL-60(TB) leukemia; > 100 µM in the experiment with NCI-H226 lung; > 100 µM in the experiment with NCI-H23 lung; > 100 µM with PC-3 prostate; > 100 µM with RXF 393 renal. The TGI in the experiment with SK-MEL-2 melanoma, with SK-MEL-5 melanoma and in the experiment with UACC-257 melanoma was > 100 µM throughout.
For `O=C(N/N=C/c1ccc(F)cc1)c1[nH]c2ccc(I)cc2c1-c1ccccc1`, the GI50 with BT-549 breast was 2.15 µM; with HL-60(TB) leukemia it was 0.259 µM; in the experiment with NCI-H226 lung it was 2.24 µM; with NCI-H23 lung, 0.551 µM; in the experiment on PC-3 prostate it was 0.541 µM; in the experiment on SK-MEL-2 melanoma, 10.9 µM. For the same molecule, the GI50 in the experiment on SK-MEL-5 melanoma was 0.417 µM; in the experiment on SN12C renal, 1.63 µM; with UACC-257 melanoma it was 3.73 µM. For the same molecule, the TGI is 22.9 µM in the experiment with BT-549 breast; 0.824 µM in the experiment on HL-60(TB) leukemia; > 66.8 µM in the experiment with NCI-H226 lung; > 25.1 µM in the experiment on NCI-H23 lung; > 86.4 µM with PC-3 prostate; > 100 µM in the experiment on SK-MEL-2 melanoma. Besides, the figures for the TGI in the experiment with SK-MEL-5 melanoma, with SN12C renal and in the experiment with UACC-257 melanoma were 2.52 µM, > 100 µM and > 96.6 µM, respectively.
In the case of `C=C1C(=O)O[C@H]2[C@H]1CC/C(COC(=O)c1ccc(C(=O)O)s1)=C\CC[C@@]1(C)O[C@@H]21`, the GI50 in the experiment on BT-549 breast was 1.72 µM; with NCI-H226 lung, 12.2 µM; with NCI-H23 lung it was 3.34 µM; with PC-3 prostate, 2.9 µM; with RXF 393 renal, 1.97 µM; with SK-MEL-2 melanoma it was 2.29 µM. Besides, the results for the GI50 with SK-MEL-5 melanoma, with SN12C renal and in the experiment on UACC-257 melanoma were 3.64 µM, 1.74 µM and 2.18 µM, respectively. The TGI amounted to 4.85 µM with BT-549 breast; 30.5 µM in the experiment on NCI-H226 lung; 11.8 µM in the experiment with NCI-H23 lung; 11.4 µM with PC-3 prostate; 3.92 µM with RXF 393 renal; 5.22 µM in the experiment with SK-MEL-2 melanoma. The TGI is 13.3 µM in the experiment with SK-MEL-5 melanoma, 3.5 µM in the experiment on SN12C renal and 5.47 µM in the experiment with UACC-257 melanoma.
Take `COC1C(=O)CCC2(CO2)C1(O)C1(C)OC1CCC(C)C` (configuration not stated): the TGI in the experiment on BT-549 breast, with HL-60(TB) leukemia, in the experiment on NCI-H226 lung, in the experiment with NCI-H23 lung, in the experiment on PC-3 prostate and in the experiment with RXF 393 renal was > 100 µM throughout. In addition, the TGI in the experiment on SK-MEL-5 melanoma, in the experiment with SN12C renal and with UACC-257 melanoma was > 100 µM throughout.
As for `CCOC(=O)/C=C/c1ccc(C(=O)OCC)[nH]1`, the GI50 in the experiment on BT-549 breast is 6.76 µM; with HL-60(TB) leukemia, 1.62 µM; in the experiment with NCI-H226 lung it was 15.4 µM; in the experiment on NCI-H23 lung, 7.16 µM; in the experiment on PC-3 prostate it was 4.7 µM; in the experiment on RXF 393 renal it was 9.59 µM. Besides, the figures for the GI50 in the experiment with SK-MEL-5 melanoma, in the experiment with SN12C renal and with UACC-257 melanoma were 2.34 µM, 5.11 µM and 11.3 µM, respectively. The TGI is > 100 µM with BT-549 breast; 9.89 µM in the experiment with HL-60(TB) leukemia; > 100 µM with NCI-H226 lung; > 100 µM in the experiment with NCI-H23 lung; > 100 µM in the experiment on PC-3 prostate; 46.9 µM in the experiment on RXF 393 renal. Besides, the TGI with SK-MEL-5 melanoma was 8.01 µM; in the experiment with SN12C renal, > 100 µM; in the experiment with UACC-257 melanoma, > 100 µM.
As for `N#CC1C(N)=NNC1c1ccc(-c2ccc(-c3nc4ccccc4o3)cc2)o1` (configuration not stated), the GI50 is 24 µM with BT-549 breast; 57.7 µM with HL-60(TB) leukemia; 15.1 µM with NCI-H226 lung; 40.3 µM with PC-3 prostate; 37.5 µM in the experiment on SK-MEL-2 melanoma; 21.4 µM with SK-MEL-5 melanoma. In addition, the GI50 was 45 µM with SN12C renal and 23.1 µM with UACC-257 melanoma. The TGI in the experiment with BT-549 breast is 75.7 µM; with HL-60(TB) leukemia, > 100 µM; with NCI-H226 lung, 74.5 µM; in the experiment with PC-3 prostate, > 100 µM; in the experiment with SK-MEL-2 melanoma, > 100 µM; with SK-MEL-5 melanoma, 60.5 µM. The TGI with SN12C renal and in the experiment with UACC-257 melanoma was > 100 µM throughout.

The values above are taken from PubChem BioAssay (NCI).
